{
  "source": "ChEMBL document CHEMBL3244149",
  "about": "“New synthetic routes to tilorone dihydrochloride and some of its analogues” (J Med Chem, 1978)",
  "key": {"[1]": {"system": "Mus musculus", "assay": "Toxicity in CD-1 mouse at 100 mg/kg, ip", "format": "organism-based", "parameters": "dose 100 mg/kg, route intraperitoneal", "details": "in vivo"}, "[2]": {"system": "Mus musculus", "assay": "Toxicity in CD-1 mouse at 300 mg/kg, ip", "format": "organism-based", "parameters": "dose 300 mg/kg, route intraperitoneal", "details": "in vivo"}, "[3]": {"system": "Mus musculus", "assay": "Induction of interferon production in CD-1 mouse serum at 10 to 30 mg/kg, ip after 18 hrs", "format": "functional, organism-based"}, "[4]": {"system": "Mus musculus", "assay": "Induction of interferon production in CD-1 mouse serum at 100 mg/kg, ip after 18 hrs", "format": "functional, organism-based", "parameters": "dose 100 mg/kg"}},
  "note": "Calls of active or inactive are those of the source. The calls are words filed in the database; no cut-off is given here.",
  "data": [
    {"smiles": "CCN(CC)CCOc1cccc(C(=O)c2cccc(OCCN(CC)CC)c2)c1", "values": [
      {"measurement": "Activity", "setting": "[1]", "result": "Toxic"},
      {"measurement": "Activity", "setting": "[2]", "result": "Toxic"},
      {"measurement": "Activity", "setting": "[3]", "result": "inactive"}
    ]},
    {"smiles": "CCN(CC)CCOc1ccc2c(c1)S(=O)(=O)c1cc(OCCN(CC)CC)ccc1-2", "values": [
      {"measurement": "Activity", "setting": "[4]", "result": "inactive"},
      {"measurement": "Activity", "setting": "[1]", "result": "Non-toxic"},
      {"measurement": "Activity", "setting": "[2]", "result": "Toxic"}
    ]},
    {"smiles": "CCN(CC)CCOc1ccc2c(c1)C(=O)c1cc(OCCN(CC)CC)ccc1-2", "values": [
      {"measurement": "Activity", "setting": "[4]", "result": "Active"}
    ]}
  ]
}
